Several values for one entry are separate records, joined by “and”; a condition that tells them apart may be missing. Equal values may be shown once. Inconclusive results and toxic doses are left out. How the source made its calls: active means survival T/C of 150% or more; inactive means T/C below 125% in these data.
Tested on: CD2F1 mice, L1210 leukemia ip, survival T/C
Test: NCI In Vivo Anticancer Drug Screen. Data for tumor model L1210 Leukemia (intraperitoneal) in CD2F1 (CDF1) mice
Details: higher = longer survival
Method in brief: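 Vehicle-treated tumor-bearing mice served as controls (C) for compound-treated mice (T). Reported figure is T divided by C.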

[1] = endpoint: mean survival time, dose: 100.0 mg/kg/injection, schedule: Q01DX009 (ip), vehicle: saline with Tween-80
[2] = endpoint: mean survival time, dose: 100.0 mg/kg/injection, schedule: Q04DX003 (ip), vehicle: saline with Tween-80
[3] = endpoint: mean survival time, dose: 200.0 mg/kg/injection, schedule: Q01DX009 (ip), vehicle: saline with Tween-80
[4] = endpoint: mean survival time, dose: 200.0 mg/kg/injection, schedule: Q04DX003 (ip), vehicle: saline with Tween-80
[5] = endpoint: mean survival time, dose: 400.0 mg/kg/injection, schedule: Q01DX009 (ip), vehicle: saline with Tween-80
[6] = endpoint: mean survival time, dose: 400.0 mg/kg/injection, schedule: Q04DX003 (ip), vehicle: saline with Tween-80
[7] = endpoint: mean survival time, dose: 50.0 mg/kg/injection, schedule: Q04DX002 (ip), vehicle: saline with Tween-80
[8] = endpoint: median survival time, dose: 25.0 mg/kg/injection, schedule: Q01DX009 (ip), vehicle: saline with Tween-80
[9] = endpoint: median survival time, dose: 50.0 mg/kg/injection, schedule: Q01DX009 (ip), vehicle: saline with Tween-80
[10] = endpoint: mean survival time, dose: 100.0 mg/kg/injection, schedule: Q04DX002 (ip), vehicle: saline with Tween-80
[11] = endpoint: mean survival time, dose: 200.0 mg/kg/injection, schedule: Q04DX002 (ip), vehicle: saline with Tween-80
[12] = endpoint: mean survival time, dose: 50.0 mg/kg/injection, schedule: Q01DX009 (ip), vehicle: saline with Tween-80
[13] = endpoint: mean survival time, dose: 50.0 mg/kg/injection, schedule: Q01DX009 (ip), vehicle: Klucel (hydroxypropylcellulose) (HPC)
[14] = endpoint: mean survival time, dose: 100.0 mg/kg/injection, schedule: Q01DX009 (ip), vehicle: Klucel (hydroxypropylcellulose) (HPC)
[15] = endpoint: mean survival time, dose: 200.0 mg/kg/injection, schedule: Q01DX009 (ip), vehicle: Klucel (hydroxypropylcellulose) (HPC)
[16] = endpoint: mean survival time, dose: 100.0 mg/kg/injection, schedule: Q01DX001 (ip), vehicle: saline
[17] = endpoint: mean survival time, dose: 200.0 mg/kg/injection, schedule: Q01DX001 (ip), vehicle: saline
[18] = endpoint: mean survival time, dose: 400.0 mg/kg/injection, schedule: Q01DX001 (ip), vehicle: saline

Measured: T/C

CCOCCN1CCN(CCCN2c3ccccc3Sc3ccc(C(F)(F)F)cc32)CC1
inactive: endpoint: mean survival time, dose: 1.75 mg/kg/injection, schedule: Q01DX001 (ip), vehicle: water 103 % of control | endpoint: mean survival time, dose: 3.5 mg/kg/injection, schedule: Q01DX001 (ip), vehicle: water 106 % of control | endpoint: mean survival time, dose: 7.0 mg/kg/injection, schedule: Q01DX001 (ip), vehicle: water 105 % of control | endpoint: mean survival time, dose: 9.9 mg/kg/injection, schedule: Q01DX001 (ip), vehicle: water 102 % of control | endpoint: mean survival time, dose: 15.0 mg/kg/injection, schedule: Q01DX001 (ip), vehicle: water 98 % of control | endpoint: mean survival time, dose: 22.0 mg/kg/injection, schedule: Q01DX001 (ip), vehicle: water 106 % of control | endpoint: mean survival time, dose: 37.5 mg/kg/injection, schedule: Q04DX003 (ip), vehicle: saline 122 % of control

C/C(=N/NC(=O)c1ccccc1)c1ccc(O)cc1
inactive: [1] 96 % of control | [2] 96 % of control | [3] 97 % of control | [4] 98 % of control | [5] 91 % of control | [6] 100 % of control

CCOC(=O)CCCc1ccccc1
inactive: [1] 93 % of control | [3] 95 % of control | [5] 102 % of control

CC(C)C[P+](c1ccccc1)(c1ccccc1)c1ccccc1
inactive: endpoint: mean survival time, dose: 75.0 mg/kg/injection, schedule: Q01DX001 (ip), vehicle: other 96 % of control

COc1ccc([N+](=O)[O-])cc1Br
inactive: [2] 100 % of control | [4] 102 % of control | [6] 102 % of control

O=C1CCCCCCC(=O)CCCCCC1
inactive: endpoint: mean survival time, dose: 12.5 mg/kg/injection, schedule: Q04DX002 (ip), vehicle: saline with Tween-80 105 % of control | endpoint: mean survival time, dose: 25.0 mg/kg/injection, schedule: Q04DX002 (ip), vehicle: saline with Tween-80 101 % of control | [7] 105 % of control

CCSCCCCO
inactive: endpoint: mean survival time, dose: 75.0 mg/kg/injection, schedule: Q04DX003 (ip), vehicle: saline 97 % of control | endpoint: mean survival time, dose: 150.0 mg/kg/injection, schedule: Q04DX003 (ip), vehicle: saline 103 % of control | endpoint: mean survival time, dose: 300.0 mg/kg/injection, schedule: Q04DX003 (ip), vehicle: saline 98 % of control

CC(C)CCCC(C)C1CCC2C3=CCC4CC(OC(=O)CCC(C)C)CCC4(C)C3CCC21C (stereo not drawn)
inactive: [2] 101 % of control | [4] 96 % of control | [6] 104 % of control

Nc1nc2ncc(CN(N=O)c3ccc(C(=O)NC(CCC(=O)O)C(=O)O)cc3)nc2c(=O)[nH]1 (stereo not drawn)
inactive: endpoint: mean survival time, dose: 10.0 mg/kg/injection, schedule: Q01DX009 (ip), vehicle: water 102 % of control | endpoint: mean survival time, dose: 20.0 mg/kg/injection, schedule: Q01DX009 (ip), vehicle: water 101 % of control | endpoint: mean survival time, dose: 40.0 mg/kg/injection, schedule: Q01DX009 (ip), vehicle: water 98 % of control | endpoint: mean survival time, dose: 80.0 mg/kg/injection, schedule: Q01DX009 (ip), vehicle: distilled water + Tween-80 94 % of control | endpoint: mean survival time, dose: 160.0 mg/kg/injection, schedule: Q01DX009 (ip), vehicle: distilled water + Tween-80 90 % of control

COC1=C(Br)[C@H](O)[C@](O)(CC#N)C=C1Br
inactive: endpoint: mean survival time, dose: 6.25 mg/kg/injection, schedule: Q01DX009 (ip), vehicle: saline 113 % of control | endpoint: mean survival time, dose: 12.5 mg/kg/injection, schedule: Q01DX009 (ip), vehicle: saline 111 % of control | endpoint: mean survival time, dose: 17.5 mg/kg/injection, schedule: Q01DX009 (ip), vehicle: Klucel (hydroxypropylcellulose) (HPC) 98 % of control | endpoint: mean survival time, dose: 25.0 mg/kg/injection, schedule: Q01DX009 (ip), vehicle: saline 117 % of control | endpoint: mean survival time, dose: 35.0 mg/kg/injection, schedule: Q01DX009 (ip), vehicle: Klucel (hydroxypropylcellulose) (HPC) 100 % of control | endpoint: mean survival time, dose: 70.0 mg/kg/injection, schedule: Q01DX009 (ip), vehicle: Klucel (hydroxypropylcellulose) (HPC) 102 % of control

CC1(C)CC2(C)OC2C2(C1)N=NC(=Nc1ccccc1)O2 (stereo not drawn)
inactive: [8] 110 % of control | [9] 102 % of control

O=C(O)C1C2C=CC3(CN(CCc4ccccc4)C(=O)C13)O2 (stereo not drawn)
inactive: [10] 95 % of control | [11] 95 % of control | endpoint: mean survival time, dose: 400.0 mg/kg/injection, schedule: Q04DX002 (ip), vehicle: saline with Tween-80 103 % of control

C/C=C\c1ccc(OCCOC(=O)Nc2ccc(Cl)cc2OC)c(OC)c1
inactive: [12] 89 % of control | [1] 89 % of control | [3] 93 % of control

CCCCCCCCN(c1ccc(C(=O)NC(CCC(=O)OCC)C(=O)OCC)cc1)S(=O)(=O)c1ccc(C)cc1 (stereo not drawn)
inactive: endpoint: mean survival time, dose: 12.5 mg/kg/injection, schedule: Q04DX003 (ip), vehicle: saline with Tween-80 94 % of control | endpoint: mean survival time, dose: 25.0 mg/kg/injection, schedule: Q04DX003 (ip), vehicle: saline with Tween-80 100 % of control | endpoint: mean survival time, dose: 50.0 mg/kg/injection, schedule: Q04DX003 (ip), vehicle: saline with Tween-80 102 % of control | [2] 86 % of control | [4] 86 % of control | [6] 87 % of control

Nc1nc(N)c2cc(CNc3ccc(C(=O)NC(CC(=O)O)CC(=O)O)cc3)cnc2n1
inactive: [13] 94 % of control | [14] 98 % of control

O=C(CC(=O)C(F)(F)F)c1ccco1.O=C(CC(=O)C(F)(F)F)c1ccco1.O=C(CC(=O)C(F)(F)F)c1ccco1.[Eu]
inactive: [2] 94 % of control | [4] 94 % of control | [6] 89 % of control

CCCCCCCCCCCCCCCC1CCCC(C)N1 (stereo not drawn)
inactive: [7] 90 % of control and 105 % of control | [10] 87 % of control | [11] 87 % of control

CC(=O)Nc1ccccc1N
inactive: [13] 100 % of control | [14] 94 % of control | [15] 103 % of control | endpoint: mean survival time, dose: 400.0 mg/kg/injection, schedule: Q01DX009 (ip), vehicle: Klucel (hydroxypropylcellulose) (HPC) 107 % of control

COC1(O)C(=O)c2ccccc2OC1(OC)c1ccc(Cl)cc1 (stereo not drawn)
inactive: endpoint: mean survival time, dose: 50.0 mg/kg/injection, schedule: Q01DX001 (ip), vehicle: saline 98 % of control | [16] 102 % of control | [17] 98 % of control | [18] 98 % of control

CC/C(=C(\c1ccccc1)c1ccc(OCCN(C)C)cc1)c1ccccc1
inactive: endpoint: median survival time, dose: 3.12 mg/kg/injection, schedule: Q01DX009 (ip), vehicle: suspension in saline 101 % of control | endpoint: median survival time, dose: 6.25 mg/kg/injection, schedule: Q01DX009 (ip), vehicle: suspension in saline 101 % of control | endpoint: median survival time, dose: 12.5 mg/kg/injection, schedule: Q01DX009 (ip), vehicle: suspension in saline 100 % of control | [8] 100 % of control | endpoint: median survival time, dose: 25.0 mg/kg/injection, schedule: Q01DX009 (ip), vehicle: suspension in saline 97 % of control | [9] 107 % of control

Cc1ccc([N+](=O)[O-])cc1NC(=O)NNC(=O)CNC(=O)Nc1ccc(F)cc1
inactive: [3] 87 % of control | [5] 92 % of control

O=[N+]([O-])c1ccc(S(=O)(=O)O)cc1
inactive: [16] 95 % of control | [17] 105 % of control | [18] 100 % of control

CC(=O)Oc1ccc(N2C(=O)C=CC2=O)cc1
inactive: endpoint: mean survival time, dose: 12.5 mg/kg/injection, schedule: Q04DX003 (ip), vehicle: Klucel (hydroxypropylcellulose) (HPC) 96 % of control

C=COC(=O)C(Cc1ccccc1)NC(=O)OCc1ccccc1 (stereo not drawn)
inactive: [8] 96 % of control | [9] 96 % of control | endpoint: median survival time, dose: 100.0 mg/kg/injection, schedule: Q01DX009 (ip), vehicle: saline with Tween-80 93 % of control | endpoint: median survival time, dose: 200.0 mg/kg/injection, schedule: Q01DX009 (ip), vehicle: saline with Tween-80 93 % of control | endpoint: median survival time, dose: 400.0 mg/kg/injection, schedule: Q01DX009 (ip), vehicle: saline with Tween-80 101 % of control

COc1ccc(OCCOC(=O)Nc2ccc(C)c([N+](=O)[O-])c2)cc1
inactive: [12] 92 % of control | [1] 88 % of control | [3] 92 % of control

C=CCC(C(=O)O)(c1ccccc1)c1ccccc1
inactive: [13] 95 % of control | [14] 98 % of control | [15] 98 % of control

CCCCCCC[CH2][Sn][CH2]CCCCCCC.Nc1ncnc2c1ncn2C1OC(CO)C2[OH+][OH+]C21 (stereo not drawn)
inactive: endpoint: mean survival time, dose: 12.5 mg/kg/injection, schedule: Q01DX005 (ip), vehicle: other 98 % of control | endpoint: mean survival time, dose: 25.0 mg/kg/injection, schedule: Q01DX005 (ip), vehicle: other 110 % of control

Cc1c[n+]([O-])ccc1Br
inactive: endpoint: mean survival time, dose: 25.0 mg/kg/injection, schedule: Q01DX009 (ip), vehicle: water 94 % of control | endpoint: mean survival time, dose: 50.0 mg/kg/injection, schedule: Q01DX009 (ip), vehicle: water 100 % of control | endpoint: mean survival time, dose: 100.0 mg/kg/injection, schedule: Q01DX009 (ip), vehicle: water 88 % of control

Source: PubChem BioAssay AID256 (DTP/NCI, 2004)
